The record followed here is patent publication US11099176B2 (priority 2015, dated 2021).

Assay type in all cases: binding
Test [1] relates to Marinobacter sp. msLacBP6 variant 187C, F68L, SEQ ID NO: 49, Acrylodan conjugate. Briefly: Fluorescence titration of conjugate (affinity tuning). More on the design: key to appKd (alanine): nb: no binding.
Test [2] relates to Marinobacter sp. msLacBP6 variant 187C, L70I, SEQ ID NO: 52, Badan conjugate. Described as above. More on the design: key to appKd (alanine): nb: no binding.
The test system of test [3] is Marinobacter sp. msLacBP6 variant 187C, F68L, SEQ ID NO: 49, Badan conjugate. Described as above. More on the design: key to appKd (alanine): nb: no binding.
For test [4], the system named is Marinobacter sp. msLacBP6 variant 187C, F68M, SEQ ID NO: 50, Acrylodan conjugate. The description is as above. The arrangement: key to appKd (alanine): nb: no binding.
Test [5] has as its system Marinobacter sp. msLacBP6 variant 187C, D220E, SEQ ID NO: 56, Badan conjugate. Described as above. More on the design: key to appKd (alanine): nb: no binding.
Test [6] concerns Marinobacter sp. msLacBP6 variant 187C, F68M, SEQ ID NO: 50, Badan conjugate. The test is described as above. The arrangement: key to appKd (alanine): nb: no binding.
Test [7] concerns Marinobacter sp. msLacBP6 187C mutants (variants of Table 7). Briefly: Affinity summary of msLacBP6 187C affinity-tuning mutants. The following applies: all mutants. An excerpt:
In the PCS we mutated F68 (F98 in ttLacBP1) and D220 (D250 in ttLacBP1). […] It could therefore be considered part of a secondary complementary surface layer (SCS). In the interface we mutated L70 (L100 in ttLacBP1), which is located at the periphery of the lactate-binding site, and forms a contact from the N- to the C-terminal domain across the inter-domain interface.
Both PCS and SCS mutations perturbed the spectral shapes of the lactate-mediated responses. […] These affinity-tuned sensors therefore provide a suitable set for clinical chemistry applications.

Test [8] deals with Marinobacter sp. msLacBP6 variant 187C, D220E, SEQ ID NO: 56, Acrylodan conjugate. Description: Fluorescence titration of conjugate (affinity tuning). More on the design: key to appKd (alanine): nb: no binding.
For test [9], the system named is Marinobacter sp. msLacBP6 conjugates (variants of Table 5). Description: Affinity summary of msLacBP6 single-cysteine conjugates.
The subject of test [10] is Marinobacter sp. msLacBP6 variant 187C, L70I, SEQ ID NO: 52, Acrylodan conjugate. Briefly: Fluorescence titration of conjugate (affinity tuning). More on the design: key to appKd (alanine): nb: no binding.

Consider `C[C@H](N)C(=O)O` [L-alanine], for which the “appKd (alanine)” value in test [1], in [2], in test [3], in test [4], in test [5] and in test [6] was “n/b” throughout. Moreover, the “appKd (alanine)” value in [8] and in test [10] was “n/b” each time. In addition, the “binding to L-alanine” value in [7] was “None of the mutants bound L-alanine”; in test [9], “no binding”.
